The values that follow come from patent US5859227A, “RNA sequences which interact with RNA-binding proteins” (Bearsden Bio, Inc., priority 1997, dated 1999).

The test system of data set [1] is TNF-α production. The note with it: previously shown; cited from earlier work.
Data set [2] relates to AUUUA RNA / RNA binding protein (K562 extract). In words: Exploratory library screen, filter binding, 32P-labeled AUUUA RNA and K562 extract. The settings on record: 10 μM. An excerpt: FIG. 4 is a graph of the amount of radioactively labeled RNA retained on a filter (expressed in percent of the amount of RNA retained on a filter in a reference binding solution) following loading of various binding solutions. All of the binding solutions contained radioactively labeled AUUUA RNA either alone or including various other components. The first column represents a binding solution without RNA binding protein. The remaining columns represent binding solution containing RNA binding protein (K562 extract). Columns 3 through 8 correspond to binding solutions including the indicated test compound.
(§1) a. Filter binding. Filter binding involves trapping interacting molecules on a filter while non interacting molecules pass through the filter. This procedure is known to those of skill in the art. For example, prewet nitrocellulose filters are equilibrated in 1× binding buffer. The binding reaction is then applied to the filter by vacuum filtration to remove unbound RNA. The filter is washed in 1× binding buffer, scintillation cocktail is added and the amount of protein-bound RNA is determined by scintillation counting.
(§2) All binding reactions were performed in 96-well v-bottom plates in a final volume of 10 μl. The assays were constituted and performed as described below. Specifically, assays were performed by (1) forming a binding solution including RNA molecules, 7.5 mM BTP at pH 8.5, 10 mM KCl, 5 mM MgCl2, 0.2 mM DTT, and 10% glycerol, (2) heating the binding solution to denature the RNA molecules, (3) cooling the binding solution, (4) adding RNA binding proteins to the binding solution, (5) loading the binding solution onto a filter, and (6) detecting the amount RNA retain on the filter. It is preferred that the samples be loaded on to a filter of either pure nitrocellulose or a mixed cellulose ester (MCA). It is also preferred that the filters have a 0.2μ pore size, although filters with a 0.45μ pore size will also bind the RNA/RNA binding protein complex. It is preferred that, prior to loading the binding solution onto a filter, the volume is increased. For this purpose, it is preferred that the dilution solution has the same buffer components as the binding solution except lacking the density agent. For a 10 μl volume it is preferred that the final volume be about 100 μl. It is also preferred that the binding solution be loaded onto the filter under vacuum. It is also preferred that the filter is washed twice prior to detecting the amount of RNA retained on the filter. Preferably the wash solution had the same composition as the dilution solution. However, TE (pH 8.0), PBS, or TCA can also be used as wash solutions. In most of the assays described below, the RNA molecules were labeled with ^32 P.
The library was initially screened at 10 μM against ^32 P-labeled AUUUA RNA. Several methods of introducing the compounds into the binding reaction were tested. Initially the compounds were co-incubated with the RNA and protein, producing modest results. Next, preincubation with either the protein extract or the RNA was tried with improved results.
Seventeen compounds were chosen for further analysis at 100 nM, 1 μM and 10 μM using both AUUUA and IRE RNAs based on the results from three screening efforts (Exps. 29-31). Table 2 summarizes the results from these compounds at 10 μM. The results are also shown graphically in FIG. 4. […] Compounds D9 and H2, chosen as negative controls from the initial screening, continued to have no effect in the dose dependent screen (Exp. 33) and were identified as vehicle controls.
A 96 member random compound library was screened with the disclosed high throughput assay. The compounds were initially screened at 10 μM against ^32 P-labeled AUUUA RNA. […] Seventeen compounds were chosen for further analysis at 100 nM, 1 μM and 10 μM using both AUUUA and IRE RNA molecules to determine if any selectivity of the compounds could be detected. […]

The subject of data set [3] is IRE RNA / RNA binding protein (K562 extract). Put plainly: High throughput filter binding assay, labeled IRE RNA and K562 protein extract. The settings on record: hemin 1 to 100 μM; FeCl3 and desferroxiamine 1 μM to 1 mM. Here is the method: as §1
as §2, with “It is also preferred that the binding solution be loaded onto the filter under vacuum. It is also preferred that the filter is washed twice prior to detecting the amount of RNA retained on the filter. Preferably the wash solution had the same composition as the dilution solution. However, TE (pH 8.0), PBS, or TCA can also be used as wash solutions. In most of the assays described below, the RNA molecules were labeled with ^32 P.” left out
Binding assays were performed with wild-type IRE RNA and K562 protein extract in the presence of sources of iron or iron chelators to determine the ability of the filter assay to detect the modulation of binding interactions by small molecules. […] The reactions were analyzed by gel shifts to visualize the results of the filter assay. […]

For data set [4], the system named is human C4b-binding protein 5' UTR / RNA binding proteins (K562 cell line protein). Put plainly: Gel shift specificity (competition), labeled C4b-binding protein 5' UTR and K562 protein. The note with it: 100 and 1,000 fold molar excess of unlabeled RNA. An excerpt:
(§3) A primer pair was designed from the 5' end of the UTR and a 3' primer encompassing nucleotide +1 with the use of the OLIGO program. Similar primers encompassing the same criteria can be designed either manually without the use of this program, or using another similar oligonucleotide design program. In addition, the 5' primer contained 24 nucleotides at the 5' end encoding for the T7 promoter. Clones containing the above sequences were generated by rtPCR from total RNA obtained from the K562 lymphoblastoma cell line. The clones were restriction mapped and analyzed by gel electrophoresis to confirm their identity.
(§4) PCR products generating a single band (in the undigested lanes) were then used for in vitro transcription of labeled RNA using Ambion's Maxiscript Kit. The labeled transcripts were used in the RNA binding protein detection assay described above. The binding solutions containing the labeled RNA were incubated with 2 μg of protein isolated from the same cell from which the rtPCR product was generated, and the products were resolved on a non-denaturing gel. […] In this experiment, a 100 and 1,000 fold molar excess of unlabeled identical RNA or the same excess of different RNA are added to the binding reactions.

Data set [5] relates to human CD45 5' UTR / RNA binding proteins (K562 cell line protein). Put plainly: Gel shift specificity (competition), labeled CD45 5' UTR and K562 protein. The note with it: 100 and 1,000 fold molar excess of unlabeled RNA.
Description: as §3, §4

In the case of `CC(=NN=C(N)N)c1cc(NC(=O)CCCCCCCCC(=O)Nc2cc(C(C)=NN=C(N)N)cc(C(C)=NN=C(N)N)c2)cc(C(C)=NN=C(N)N)c1` [Compound G10, CNI-1493], the “post-transcriptional inhibition of TNF-α production” value in data set [1] is “post-transcriptionally inhibit TNF-α production”. In data set [2] (4 experiments), the “change in counts across the experiments” value was “substantial increase in counts in 3 of the 4 experiments”. For the same molecule, in data set [2] (RNA&K562 = 100), the “labeled AUUUA RNA retained on filter, percent of RNA&K562 reference, Experiment #29” value stood at 114.53%; the “labeled AUUUA RNA retained on filter, percent of RNA&K562 reference, Experiment #30” value stood at 66.94%; the “labeled AUUUA RNA retained on filter, percent of RNA&K562 reference, Experiment #31” value came to 127.28%; the “labeled AUUUA RNA retained on filter, percent of RNA&K562 reference, Experiment #33” value was found to be 135.24%. For the same molecule, the “Avg. % (labeled AUUUA RNA retained on filter)” value in data set [2] (mean of Experiments #33, #31, #30, #29) was 111.00%.
For `CC(=O)N(O)CCCCCNC(=O)CCC(=O)N(O)CCCCCNC(=O)CCC(=O)N(O)CCCCCN` [Desferroxiamine, desferroxiamine], the “modulation of IRE/protein binding by small molecules” value in data set [3] is on record as “did not change the amount IRE/protein complex formed”.
Same read-out and setting: as for `[Cl][Fe]([Cl])[Cl]` [FeCl3], the entry is “concentration-dependent inhibition of binding”; as for hemin, “concentration-dependent inhibition of binding”.

B1: C4b-binding protein: 5' UTR RNA of human C4b-binding protein alpha chain, SEQ ID NO:3 (nucleic acid)
chain: GCUGCUUUAUUUCUGCUGUUAAUCAUUCAUUGGGCCCGUCAAAAGUUUCUGCCCAUCUAUUUCCAUCAACCGUCCUUGACCAGCCAACCACAUGGCUGAAAUUCAGG
modifications: expressed or natural sequence
As for B1, the “competition of complex formation by unlabeled RNA” value in data set [4] is recorded as “concentration dependent inhibition of complex formation”.

B2: CD45: 5' UTR RNA of human CD45, SEQ ID NO:4 (nucleic acid)
chain: CUGACAUCAUCACCUAGCAGUUCAUGCAGCUAGCAAGUGGUUUGUUCUUAGGGUAACAGAGGAGGAAAUUGUUCCUCGUCUGAUAAGACAACAGUGGAGAAAGGACGCAUGCAGUUUCUUAGGGACACGGCUGACUUCCAGAUAUGACCAUGUAUUUGUGGCUUAAACUCUUGG
Turning to B2, the “competition of complex formation by unlabeled RNA” value in data set [5] is given as “concentration dependent inhibition of complex formation”.
